Measured values as given in PubChem BioAssay (NCI).
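Protocol summary: plate cells (96-well), add compound at 5 concentrations, incubate 48 h, interpolate endpoints linearly. TGI marks complete inhibition of growth.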

What was measured:
Assay in all cases: growth of human tumour cells (NCI), 48 h
HOP-62 NSCLC = test system: HOP-62 NSCLC
HL-60(TB) leukemia = test system: HL-60(TB) leukemia
SK-MEL-28 melanoma = test system: SK-MEL-28 melanoma
A549 NSCLC = test system: A549 NSCLC
786-0 renal = test system: 786-0 renal
SK-OV-3 ovarian = test system: SK-OV-3 ovarian
OVCAR-3 ovarian = test system: OVCAR-3 ovarian
NCI-H460 lung = test system: NCI-H460 lung
OVCAR-5 ovarian = test system: OVCAR-5 ovarian
TK-10 renal = test system: TK-10 renal
IGROV1 ovarian = test system: IGROV1 ovarian
NCI-H226 lung = test system: NCI-H226 lung
HT29 colon = test system: HT29 colon
PC-3 prostate = test system: PC-3 prostate
K-562 leukemia = test system: K-562 leukemia
NCI-H522 lung = test system: NCI-H522 lung
HS 578T breast = test system: HS 578T breast
CCRF-CEM leukemia = test system: CCRF-CEM leukemia
SW-620 colon = test system: SW-620 colon

| SMILES | TGI (HOP-62 NSCLC) [µM] | TGI (HL-60(TB) leukemia) [µM] | TGI (SK-MEL-28 melanoma) [µM] | TGI (A549 NSCLC) [µM] | TGI (786-0 renal) [µM] | TGI (SK-OV-3 ovarian) [µM] | TGI (OVCAR-3 ovarian) [µM] | TGI (NCI-H460 lung) [µM] | TGI (OVCAR-5 ovarian) [µM] | TGI (TK-10 renal) [µM] | TGI (IGROV1 ovarian) [µM] | TGI (NCI-H226 lung) [µM] | TGI (HT29 colon) [µM] | TGI (PC-3 prostate) [µM] | TGI (K-562 leukemia) [µM] | TGI (NCI-H522 lung) [µM] | TGI (HS 578T breast) [µM] | TGI (CCRF-CEM leukemia) [µM] | TGI (SW-620 colon) [µM] |
| --- | --- | --- | --- | --- | --- | --- | --- | --- | --- | --- | --- | --- | --- | --- | --- | --- | --- | --- | --- |
| CN(C)c1ccc(C(=N/N=C2\C(=O)Nc3ccccc32)c2ccc(N(C)C)cc2)cc1 | 41.9 | 7.4 | > 57.2 | 43.2 | 13.2 | 11.9 | 3.63 | 11.2 | > 54 | 28.2 | 9.07 | 43.3 | 4.45 | 40 | 39.6 | 0.649 | > 21.9 | 13.2 | > 100 |
| O=C(Nc1nccs1)c1c(O)nc2sccn2c1=O | > 10 | > 10 | > 10 | > 10 | – | > 10 | > 10 | > 10 | > 10 | > 10 | > 10 | > 10 | > 10 | > 10 | – | > 10 | > 10 | > 10 | > 10 |
| COc1cc(C2c3cc4c(cc3OC(NN)C2C)OCO4)cc(OC)c1OC (stereo not drawn) | 8.55 | 0.977 | > 100 | > 100 | > 100 | > 100 | 1.04 | > 100 | > 100 | > 100 | > 100 | > 24.4 | – | > 100 | > 31.1 | 8.96 | > 100 | > 93 | > 100 |
| CC1=NN(c2cccc(Cl)c2)C2(C1=C/C=C/c1ccccc1)C(Cl)C(=O)N2c1nc2ccccc2s1 (stereo not drawn) | > 100 | > 68.3 | > 100 | > 100 | > 55 | > 95.1 | > 80.9 | > 100 | > 71.2 | > 100 | > 100 | > 100 | > 100 | > 82.9 | 31 | 47.4 | 49 | > 59.3 | > 96.1 |
| O=C1NCCN1/N=C/c1c(Cl)n(-c2ccccc2)c2ccccc12 | > 100 | > 100 | – | > 100 | 77 | > 100 | > 100 | – | > 100 | 43.6 | 41.7 | 54 | 35.3 | 98.8 | 68.1 | 44.4 | 43.8 | > 100 | 53.4 |
| N=C(N)SCc1ccc2c(c1)Sc1ccccc1O2 | 34.1 | > 63 | 38.7 | 23 | 24.6 | 27 | 16.9 | 21.5 | 25.3 | 14.1 | 11.9 | 31.1 | 8.54 | 16.5 | > 100 | 3.09 | 16.5 | > 54.1 | 34 |
| COc1cccc2c1OC1(C=C2)Oc2ccccc2C(=O)N1C (stereo not drawn) | > 100 | 75.9 | > 100 | > 100 | > 100 | 74.3 | > 100 | 98.6 | > 100 | > 100 | > 100 | 95.9 | > 100 | > 100 | > 100 | > 100 | 81.8 | 46.2 | > 100 |
| N#CC12C(=O)N=C(N)C1(C#N)C(c1ccco1)NC1=C2CCCC1 (stereo not drawn) | > 100 | > 100 | > 100 | > 100 | > 100 | > 100 | – | > 100 | > 100 | > 100 | > 100 | > 100 | > 100 | > 100 | – | > 100 | > 100 | > 100 | > 100 |
| CCCCCCOc1ccc(C(=O)NOC)cc1 | > 100 | 86.8 | > 100 | > 100 | > 100 | > 100 | > 100 | > 100 | > 100 | > 100 | > 100 | > 100 | > 100 | > 100 | > 100 | > 100 | > 100 | > 100 | > 100 |
| Cc1ccc(S(=O)(=O)N/N=C/C2(c3ccccc3)c3ccccc3-c3ccccc32)cc1 | 32.1 | > 100 | 28.6 | 19.8 | 31.2 | 39.8 | 20.8 | 18.2 | 25.1 | 98.5 | 23.5 | 34.1 | 26.3 | 13.4 | > 100 | 28.6 | 39.3 | > 100 | 31 |
| COc1cc(/C=C/C(=O)CC(=O)/C=C/c2ccc(OC(=O)CCCCC3CCSS3)c(OC)c2)ccc1OC(=O)CCCCC1CCSS1 (stereo not drawn) | > 100 | > 100 | > 100 | > 100 | > 100 | > 100 | > 100 | > 100 | > 100 | > 100 | > 100 | > 100 | > 100 | > 100 | > 100 | > 100 | > 100 | > 100 | > 100 |
| c1c[nH]c(-c2ccc(-c3ccc[nH]3)c3nsnc23)c1 | > 80.1 | > 100 | > 100 | > 70 | > 67.6 | > 100 | 95.4 | > 100 | > 96.1 | > 100 | > 100 | > 100 | > 37.8 | > 100 | > 49.1 | > 100 | > 100 | > 35.3 | > 100 |
| O=[N+]([O-])c1ccc(Oc2c(Cl)cc(S(=O)(=O)/N=C(\NO)Nc3ccc(Cl)cc3)cc2Cl)cc1 | 32.7 | 13.7 | 28.7 | 27.8 | 23.5 | 31.2 | 19.4 | 24.8 | 25.8 | 23.2 | 29.8 | 35.3 | 27.9 | 22.2 | 35.9 | 12.7 | 36.7 | 24.5 | 28.6 |
| CCCC(=O)OC1CC(n2cc(F)c(=O)[nH]c2=O)OC1COP(=O)(OCC(Cl)(Cl)Cl)OCC(Cl)(Cl)Cl (stereo not drawn) | > 100 | 40.4 | > 62.4 | > 94.6 | > 100 | > 31.6 | 38.8 | 28.8 | > 100 | > 100 | > 31.6 | > 100 | 41.3 | > 100 | – | 16.6 | 76.3 | 94.4 | > 100 |
| CCC1(CC)C(=O)NN(C(=O)c2ccccc2)C1=O | > 100 | > 100 | > 100 | > 100 | > 100 | > 100 | > 100 | > 100 | > 100 | > 100 | > 100 | > 100 | > 100 | > 100 | > 100 | > 100 | > 100 | > 100 | > 100 |
| O=C(/C=C/c1ccc2c(c1)OCO2)CC(=O)C(=O)c1c[nH]c2ccccc12 | > 100 | > 100 | > 100 | > 100 | > 100 | > 100 | > 100 | > 100 | > 100 | > 100 | > 100 | – | > 100 | > 100 | 84.6 | > 100 | 68.1 | 69.4 | > 100 |
| CC1=NN(c2cccc(Cl)c2)C2(SCC(=O)N2c2nc3ccccc3s2)/C1=C\c1ccccc1O (stereo not drawn) | 54.7 | 52.1 | > 100 | – | 32.3 | 51.3 | 80.3 | > 100 | > 100 | > 100 | 80.9 | > 100 | 67.4 | 61.1 | > 100 | 42.4 | 65.5 | > 100 | 35.8 |
| NS(=O)(=O)c1cc(Cl)c(NC(=S)NC(=O)Nc2ccc(Cl)c(Cl)c2)c(Cl)c1 | > 100 | 68.4 | > 100 | > 100 | > 100 | > 100 | > 100 | > 100 | > 100 | > 100 | > 100 | > 100 | > 100 | > 100 | > 100 | 86.4 | > 100 | > 100 | > 100 |
| CCN(CC)CCN(C(=Nc1ccccc1)N1CCOCC1)c1ccccc1 | > 100 | > 100 | > 100 | > 100 | > 100 | > 100 | > 100 | > 100 | – | > 100 | > 100 | > 100 | > 100 | > 100 | > 100 | > 100 | > 100 | > 100 | > 100 |
| CN1CSC(=S)N(c2c3ccccc3nc3ccc(Br)cc23)C1 | 51 | 27.2 | 35.2 | 21.6 | 16.6 | 31.1 | 33.3 | 13.6 | 31.6 | 21.9 | 25.1 | 37 | 23.1 | 26.3 | > 32.4 | 12.6 | 47.2 | 22.8 | 23.8 |
| O=C(O)/C=C(/C(=O)O)C12CCN3CC4=CCOC5CC(=O)NC1C5C4CC32 (stereo not drawn) | > 100 | > 100 | > 100 | > 100 | > 100 | > 100 | > 100 | > 100 | > 100 | > 100 | > 100 | > 100 | > 100 | > 100 | > 100 | > 100 | > 100 | > 100 | > 100 |
| CCOC(=O)c1c(C)nc2c3ccccc3c(C#N)c(C)n12 | 70.7 | > 100 | > 100 | > 100 | – | 51.3 | > 100 | > 100 | > 100 | > 100 | > 100 | > 100 | – | > 100 | > 100 | 89.3 | > 100 | > 100 | > 100 |
| [O-][n+]1ccccc1Sc1nc(Sc2cccc[n+]2[O-])nc(Sc2cccc[n+]2[O-])n1 | 9.17 | > 100 | 3.25 | 13.9 | 2.53 | 18.6 | 6.49 | 4.22 | 3.61 | 3.82 | 3.03 | 6.78 | 2.61 | 2.19 | – | 2.23 | 10.9 | > 100 | – |
| CCOC(=O)c1cn2c(nc1=O)N[C@H]1CCCC[C@@H]12 | – | > 100 | > 100 | > 100 | > 100 | > 100 | > 100 | > 100 | > 100 | > 100 | > 100 | > 100 | > 100 | > 100 | > 100 | > 100 | > 100 | > 100 | > 100 |
| Cc1ccc(C(=C2Sc3ccccc3S2)C(=C2Sc3ccccc3S2)c2ccc(C)s2)s1 | > 100 | > 100 | > 100 | > 100 | > 100 | > 100 | > 100 | – | > 100 | > 100 | > 100 | > 100 | > 100 | > 100 | > 100 | > 100 | > 100 | > 100 | > 100 |
